Results as given in patent US20080206149A1, “METHOD, DYE AND MEDICAMENT FOR STAINING THE INTERNAL LIMITING MEMBRANE, EPIRETINAL MEMBRANE, THE VITREOUS AND/OR THE CAPSULE OF AN EYE” (LUDWIG-MAXIMILIANS-UNIVERSITAT MUNCHEN, priority 2005, published 2008).

What was measured:
lens capsule = assay: Staining of the lens capsule in enucleated porcine eyes; details: injected into air-filled anterior chamber, removed after one minute; clear porcine lens as background
Experimental: Additionally, the staining characteristics of the lens capsule in enucleated porcine eyes with a postmortem time of nine hours were evaluated. The dyes were injected into the air-filled anterior chamber and removed by irrigation after one minute. Then, the cornea was removed and a capsulorhexis was performed with a bent needle. All procedures were taped on video.

ARPE-19 cells [1] = assay: Life-dead assay (propidium iodide / Hoechst 33342), ARPE-19 cells; type: cell-based; details: ARPE-19 cells, 0.2% and 0.02% dye, 24 hours after treatment, compared to BSS plus
Experimental: (§1) Confluent RPE and ARPE-19 cells were prepared and treated as described above. Cell viability was quantified based on a two-color fluorescence assay in which the nuclei of nonviable cells appear red because of staining by the membrane-impermeable dye propidium iodide (Sigma), whereas the nuclei of all cells were stained with the membrane-permeable dye Hoechst 33342 (Intergen, Purchase, N.Y.). […] For evaluation of cell viability, cells were washed in PBS and incubated with 2.0 μg/mL propidium iodide and 1.0 μg/mL Hoechst 33342 for 20 minutes at 37° C. Subsequently, cells were analyzed with an epifluorescence microscope (Axioskop; Zeiss, Göttingen, Germany). The labeled nuclei were then counted in fluorescence photomicrographs, and dead cells were expressed as a percentage of total nuclei in the field. The data are based on counts from three experiments performed in duplicate wells, with three to five documented representative fields per well.

primary RPE cells = assay: Life-dead assay (propidium iodide / Hoechst 33342), primary RPE cells; type: cell-based; details: primary RPE cells, 0.2% and 0.02% dye, 24 hours after treatment, compared to BSS plus
Experimental: Invest Ophthalmol Vis Sci 2002; 43: 3575-82.
as §1

vitreous [2] = assay: Staining of the vitreous during pars plana vitrectomy in porcine eyes; type: in vivo; details: graded by two examiners
Experimental: All dyes were dissolved and diluted using balanced salt solution (BSS plus; Alcon Laboratories Inc., Fort Worth, Tex).
Experiments were performed in animals (porcine eyes) and humans after approval of the local ethics committee had been obtained. All experiments were performed in compliance with the Declaration of Helsinki.
Ophthalmic surgery consisted of a standard pars plana vitrectomy. First, the transparent vitreous was removed as completely as possible. Then fluid air exchange was performed in order to avoid an uncontrolled distribution of the dye in the vitreous cavity. The dye was then injected into the air filled globe. After a period of one minute, the dye was washed out by irrigation with BSS. This was followed by an injection of the dye in concentrations from 0.2% to 2%. The staining of the vitreous was graded by two examiners who also performed the surgical procedures.

vitreous [3] = assay: Staining of the vitreous during vitrectomy in humans using BPB (Example 1); type: in vivo; details: 0.2%
Experimental: All patients (n=9) gave their written informed consent before surgery. […] A standard three port pars plana vitrectomy was performed. First, the transparent vitreous was removed as thoroughly as possible using the vitrectomy probe. Then fluid air exchange was performed and a few drops of the dye (BPB, 0.2%) were injected. After one minute, the dye was washed out by irrigation.

[4] = test system: anterior segment of the eye; details: animals, dye exposure of seven days, cited from earlier work
ARPE-19 cells [5] = assay: MTT assay, ARPE-19 cells; details: 0.2% and 0.02% dye, 10 minutes exposure, compared to BSS plus control
Experimental: ARPE-19 cells, a human retinal pigment epithelial cell line (42), were purchased from ATCC (Manassas, Va., USA) and grown in a 1:1 mixture of Dulbecco's modified Eagles medium and Ham's F12 medium (DMEM/Ham's F12, Biochrom), supplemented with 10% FCS (Biochrom).
For exposure of dyes RPE and ARPE-19 cells were kept for 24 hours under serum free conditions. After washing cells three times with PBS, cells were incubated for 10 minutes with 300 μl of BSS plus containing 0.2% or 0.02% of dye, respectively. […] The dye was then removed by carefully rinsing cells with BSS plus three times. After 24 hours incubation with serum containing media the cell proliferation assay was performed. RPE cells (p3-6) were seeded in 24-well plates and exposed to two concentrations (0.2 and 0.02%) of dyes. BSS plus alone and H2O2, (200 μL/mL) served as controls.
The tetrazolium dye-reduction assay (MTT; 3-[4,5-dimethylthiazol-2-yl]-2,5-diphenyl tetrazolium bromide;) was used to determine cell survival rate. […] The medium was removed, cells were washed with PBS, and 1000 μL/well MTT solution (1.5 mL MTT stock, 2 mg/mL in PBS, plus 28.5 mL DMEM) was added. RPE cells were incubated at 37° C. for 1 hour. The formazan crystals that formed were dissolved by the addition of dimethyl sulfoxide (DMSO; 1000 μL/well). Absorption was measured by a scanning multiwell spectrophotometer at 550 nm (Molecular Probes, Garching, Germany). […] Experiments were performed in triplicate and repeated three times. RPE and ARPE-19 cells of the same passage incubated with BSS without addition of dyes served as control. Statistical comparison between dye concentrations was performed with SPSS (Mann-Whitney-U-Test).
The MTT test as performed in this study is a well established test for the assessment of cell viability, but relies on calorimetric measurement of a blue (550 nm) formazan reaction product. This color overlaps with the absorption spectra of some of the dyes tested. […] Cell monolayers were treated with dyes as per the experiments described above but absorbance readings were performed without prior application of MTT. […]

## O=S1(=O)OC(c2cc(Br)c(O)c(Br)c2)(c2cc(Br)c(O)c(Br)c2)c2ccccc21 [Bromophenol blue, Bromophenole blue]
Lens capsule
  staining of the lens capsule in porcine eyes: stained well
ARPE-19 cells [1]
  cell viability, nuclei of nonviable cells labeled with propidium iodide: did not affect cell survival
Primary RPE cells
  cell viability, nuclei of nonviable cells labeled with propidium iodide: did not affect cell survival
Vitreous [2]; dye concentration 0.2%
  staining effect of the vitreous: good
Vitreous [2]; dye concentration 2.0%
  staining effect of the vitreous: strong
Vitreous [3]; humans
  complications of complete removal of the vitreous: without complications
Vitreous [3]; washed out after one minute, patients with macular pucker or macular hole
  staining of vitreous remnants adherent to the retinal surface: bluish staining
[4]; also higher dye concentrations
  clinical examinations: signs of inflammatory responses or toxicity in the anterior segment: did not reveal any signs of inflammatory responses or toxicity
[4]
  histological abnormalities following enucleation: no histological abnormalities
ARPE-19 cells [5]
  cell survival of ARPE-19 cells (MTT): no significant impact on cell survival
